Assay results as given in US10463694B2, “Functional segregated telodendrimers and nanocarriers and methods of making and using same” (The Research Foundation for the State University of New York, priority 2014, dated 2019).
Where “and” joins values, the source holds several entries; their conditions need not be identical. Equal values may be shown once. Each block holds one compound with its values, some of them ahead of it.

Experiments:
SKOV-3 tumor xenograft = experiment: NIRF optical animal imaging, in vivo and ex vivo; set-up: species or system nude mice; conditions: in vivo whole body imaging
Experimental: DiD (a hydrophobic near-infrared (NIR) cyanine dye) was encapsulated in each nanocarrier (together with PTX and CDDP) at a ratio of 2:1:0.1 (CDDP/PTX/DiD by weight) using the same method as described above. The particle size was measured by DLS analysis. 100 μL of TM(DiD-PTX-CDDP) solution was filtered with a 0.22 μm filter to sterilize solution before injection. At the same time, same amount of DiD in DMSO solution was diluted with PBS right before I.V. injection. The fluorescent DiD co-loaded TM with equivalent dose of 6 mg/kg CDDP were injected into nude mice bearing SKOV-3 tumor xenograft via tail vein. Mice were anesthetized via isoflurane and optically imaged at different time points (1 h, 2 h, 4 h, 8 h, 24 h, 48 h and 72 h) using an IVIS 200 (PerkinElmer) with the (excitation/emission 625/700 nm). At the end of the experiments, the animals were sacrificed and all the major organs as well as tumors were excised for ex vivo imaging to determine the in vivo biodistribution of nanoparticles. The associated fluorescence intensities were determined by Living Image software (Caliper Life Sciences) using operator-defined regions of interest (ROI) measurements.

[1] = test system: ES-2 ovarian cancer cells; experiment: MTS cytotoxicity and combination index, ES2; assay type: cell-based; conditions: 72 h
Experimental: (§1) In vitro synergistic cytotoxicity: The cytotoxicity of blank micelles and drug-loaded micelle were assessed by measuring the cell viability using the standard MTS assay. SKOV-3 ovarian cancer cells and ES-2 ovarian cancer cells were seeded in 96-well plates at 4×10^3 cells per well in 100 μL of McCoy's 5A with L-glutamine containing 10% fetal bovine serum, supplemented with 50 U/mL penicillin and 50 U/mL streptomycin, and incubated at 37° C. in 5% CO2 atmosphere for 24 h. Different concentrations of the empty micelle solutions and drug-loaded micelles were added into the cell medium. After 72 h incubation, Cell Titer 96® Aqueous Cell Proliferation Reagent, which is composed of MTS and an electron coupling reagent PMS, was added to each well according to the manufacturer's instructions. The cell viability was determined by measuring the absorbance at 490 nm using a micro-plate reader. […]
(§2) The effective method to evaluate synergistic drug combinations in vitro is median-effect analysis, as originally proposed by Chou and Talalay (Chou T C. Theoretical basis, experimental design, and computerized simulation of synergism and antagonism in drug combination studies. Pharmacol Rev. 2006; 58:621-81. Chou T C, Talalay P. Quantitative analysis of dose-effect relationships: the combined effects of multiple drugs or enzyme inhibitors. Adv Enzyme Regul. 1984; 22:27-55.). […]

[2] = test system: wide variety of cancer cells in culture; conditions: cited from earlier work
[3] = in vivo; cited from earlier work
Hela cells = experiment: MTS cytotoxicity and combination index, Hela; assay type: cell-based; conditions: 72 h
[4] = test system: SKOV-3 ovarian cancer cells; experiment: MTS cytotoxicity and combination index, SKOV-3; assay type: cell-based, human; conditions: 72 h
Experimental: as §1, §2

[5] = DOX release, dialysis against PBS; assay type: physicochemical; conditions: dialysis against PBS at 37° C.
Experimental: DOX Release. 1 mL of DOX-PEG^5KCHA4-L-Rh4 (1.5:15.0) solution was distributed into three dialysis tube and dialyzed against 50 ml PBS at 37° C., respectively, in comparison with free DOX. The samples were placed in conical tubes filled with PBS, which was refreshed at the time of UV-Vis measuring at 550 nm (FIG. 13). The free DOX was completely released by 10 hours but the loaded DOX remained encapsulated at around 50% by the time the study was finished at 96 hours. This indicates the high DOX binding affinity within PEG^5KCHA4-L-Rh4 micelles and a sustained DOX release would reduce in vivo toxicity of payload drug and increase tumor targeting effects via the prolonged circulating to take EPR effects.

[6] = test system: SKOV-3 ovarian cancer xenografts; experiment: In vivo anticancer efficacy
Experimental: Xenograft Mouse Models. Female athymic nude mice (Nu/Nu strain), 5-6 weeks age, were purchased from Harlan (Livermore, Calif.). All animals were kept under pathogen-free conditions according to AAALAC (Association for Assessment and Accreditation of Laboratory Animal Care) guidelines and were allowed to acclimatize for at least 4 days prior to any experiments. All animal experiments were performed in compliance with institutional guidelines and according to protocol approved by the Animal Use and Care Administrative Advisory Committee. SKOV-3 ovarian cancer cells (7×10^6) in a 100/IL of mixture of PBS and Matrigel (1:1 v/v) without fetal bovine serum (FBS) were injected subcutaneously into the flanks of nude mice to form nodules.
In vivo anticancer efficacy. Nude mice bearing human SKOV3 ovarian cancer tumor (approximately 150 mm^3) were randomly divided into 6 groups (n=5), including control (PBS only), free CDDP (4 mg/kg CDDP), TM(PTX) (3 mg/kg PTX), PEG(CDDP) (4 mg/kg CDDP), TM(CDDP) (6 mg/kg CDDP), and TM(CDDP/PTX=2:1) (6 mg/kg CDDP, 3 mg/kg PTX). Treatments were administered 3 times totally via tail vein on day 0, 4 and 8. Animal body weight and tumor volume were monitored every second day. Seven days after the last treatment, about 100 μL of blood was collected via tail bleeding for blood counts. The tumor sizes were measured with electronic calipers, and calculated using the following formula: V=(shortest diameter^2×longest diameter)/2.

[7] = Tissue biodistribution of Pt by ICP-MS; assay type: in vivo, nude mice; conditions: 48 h post-injection
Experimental: Free CDDP and TM (CDDP/PTX=2:1) were injected into nude mice via tail vein at a single equivalent dose of CDDP 6 mg/kg. At 48 h post-injection, major organs (heart, liver, spleen, lung and kidney) and tumor tissues were harvested from the mice. The organs were weighed and dissolved in the concentrated nitric acid by heating up (70° C.) and evaporated to dryness, and then re-dissolved in 0.1N HCl for tissue biodistribution of Pt analysis by ICP-MS.

[8] = cancer treatment in mouse models; cited from earlier work
[9] = Pharmacokinetics of platinum in plasma after i.v. injection; assay type: in vivo, mice
Experimental: Pharmacokinetics and biodistribution. The blood pharmacokinetics study were performed using female SPF BALB/c mice, which were purchased from Charles River Laboratories Inc. Nanocarriers were administered into mice via tail vein injection with free drug mixture of CDDP/PTX or co-loading TM (CDDP/PTX=2:1) solution at a single equivalent dose of CDDP/PTX 6/3 mg/kg via tail vein. At defined time points (5 min, 0.5 h, 1 h, 2 h, 4 h, 8 h, 24 h and 48 h), blood samples were collected into heparinized tubes and immediately centrifuged at 1,000 rpm for 15 min to obtain plasma. Plasma samples were dissolved on heat in nitric acid and the platinum contents were measured by ICP-MS. The percentage of injected dose in plasma was calculated considering plasma volume in mice to be 45.6 mL/kg. (King F G, Dedrick R L. Physiological pharmacokinetic parameters for cis-dichlorodiammineplatinum(II) (DDP) in the mouse. J Pharmacokinet Biopharm. 1992; 20:95-9.)

[10] = first figure of co-loaded cells
[11] = platinum in plasma, i.v., two compartment model

SMILES: CCCCCCCCCCCCCCCCCCN1C(=CC=CC=CC2=[N+](CCCCCCCCCCCCCCCCCC)c3ccccc3C2(C)C)C(C)(C)c2ccccc21.[O-][Cl+3]([O-])([O-])[O-] [free DiD, 1,1′-dioctadecyl-3,3,3,′,3′-tetramethylindodicarbocyanine perchlorate]
- tumor fluorescence (SKOV-3 tumor xenograft): very weak tumor fluorescence

SMILES: CC(=O)O[C@H]1C(=O)[C@@]2(C)[C@H]([C@H](OC(=O)c3ccccc3)[C@]3(O)C[C@H](OC(=O)[C@H](O)[C@@H](NC(=O)c4ccccc4)c4ccccc4)C(C)=C1C3(C)C)[C@]1(OC(C)=O)CO[C@@H]1C[C@@H]2O [PTX, paclitaxel]
- IC50 ([1]; second figure of co-loaded cells, read-out: ES2 IC50, PTX concentration): 0.055 µg/mL
- potency relative to CDDP (IC50s: low nM vs low μM) [2]: ~1000 times
- t1/2 in human [3]: 20.4 min
- IC50 (Hela cells; Homo sapiens, HeLa, second figure of co-loaded cells, read-out: Hela IC50, PTX concentration): 0.02 µg/mL
- IC50 ([4]; Homo sapiens, SK-OV-3, second figure of co-loaded cells (CDDP/PTX), read-out: SKOV-3 IC50, PTX concentration): 0.032 µg/mL

- time to complete DOX release [5]: ≤ 10 h
SMILES: COc1cccc2c1C(=O)c1c(O)c3c(c(O)c1C2=O)C[C@@](O)(C(=O)CO)C[C@@H]3O[C@H]1C[C@H](N)[C@H](O)[C@H](C)O1 [free DOX, Doxorubicin]

SMILES: [NH2][Pt]([NH2])([Cl])[Cl] [CDDP, Cisplatin]
- medium survival time ([6]; 4 mg/kg CDDP): 15 days
- body weight loss ([6]; 4 mg/kg CDDP on days 0, 4, 8, day 12): exceeded 20%
- mortality ([6]; 4 mg/kg CDDP, deaths on day 12, 13, 15, 16 and 17): died
- WBC count versus PBS control ([6]; day 7 after the last injection, 4 mg/kg CDDP): significantly decreased
- ES2 IC50, CDDP concentration [1, 10]: 0.92 µg/mL
- kidney/tumor ratio of Pt concentrations [7]: 4
- liver/tumor ratio of Pt concentrations [7]: 2
- maximum tolerated dose (MTD) [8]: ≤ 4 mg/kg
- Pt of the injected dose in plasma ([9]; 30 min after injection): 5%
- Pt of the injected dose in plasma ([9]; 24 h post injection): less than 1%
- Cmax ([9]; platinum in plasma, 5 min post iv injection): 27600 ng/mL and 27580 ng/mL
- AUC ([9]; platinum in plasma, i.v.): 30800 ng·h/mL
- CL ([9]; platinum in plasma, i.v.): 2.1645 mL/min/kg
- CL2 ([9]; platinum in plasma, i.v.): 9.3217 mL/min/kg
- Vss ([9]; platinum in plasma, i.v.): 0.6681 L/kg
- t1/2α [9, 11]: 2.64 min
- t1/2β [9, 11]: 258 min
- Hela IC50, CDDP concentration (Hela cells; [10]): 2.427 µg/mL
- SKOV-3 IC50, CDDP concentration ([4]; first figure of co-loaded cells (CDDP/PTX)): 1.354 µg/mL
